# Results reported in US20040266784A1, “Calcium channel inhibitors comprising benzhydril spaced from piperazine” (priority 1998, published 2004).
# Like-named read-outs stand apart in the source and are kept apart here.
# Target: T1, rat N-type channels (α1B+α2δ+β1b subunits) (Rattus norvegicus, UniProt Q02294)
# T1 construct: expressed in transfected cells
# Assay: Whole cell patch clamp, N-type calcium channel block in HEK 293 cells
# Assay type: cell-based
# Description: Antagonist activity was measured using whole cell patch recordings on human embryonic kidney cells either stably or transiently expressing rat N-type channels (α1B+[…]+β1b subunits) with 5 mM barium as a charge carrier. Alternatively, cells either stably or transiently expressing rat L-type channels (α1C+α2δ+β1b cDNA subunits) and P/Q-type channels (α1A+α2δ+β1b cDNA subunits)
# HEK 293 cells were transfected by a standard calcium-phosphate-DNA coprecipitation method using the rat α1B+β1b+α2δ N-type calcium channel subunits in a vertebrate expression vector (for example, see Current Protocols in Molecular Biology).
# After an incubation period of from 24 to 72 hrs the culture medium was removed and replaced with external recording solution (see below). Whole cell patch clamp experiments were performed using an Axopatch 200B amplifier (Axon Instruments, Burlingame, Calif.) linked to an IBM compatible personal computer equipped with pCLAMP software. […] Current data shown were elicited by a train of 100 ms test pulses at 0.066 Hz from −100 mV and/or −80 mV to various potentials (min. −20 mV, max. +30 mV). Drugs were perfused directly into the vicinity of the cells using a microperfusion system.
# Normalized dose-response curves were fit (Sigmaplot 4.0, SPSS Inc., Chicago, Ill.) by the Hill equation to determine IC50 values. Steady-state inactivation curves were plotted as the normalized test pulse amplitude following 5 s inactivating prepulses at +10 mV increments.
# Alternatively, N-type calcium channels (α1B+α2δ+β1b cDNA subunits), L-type channels (α1C+α2δ+β1b cDNA subunits) and P/Q-type channels (α1A+α2δ+β1b cDNA subunits) were transiently expressed in HEK 293 cells. Briefly, cells were cultured in Dulbecco's modified eagle medium (DMEM) supplemented with 10% fetal bovine serum, 200 U/ml penicillin and 0.2 mg/ml streptomycin at 37° C. with 5% CO2. […] At 12 hours the medium was replaced and the cells transiently transfected using a standard calcium phosphate protocol and the appropriate calcium channel cDNAs. Fresh DMEM was supplied and the cells transferred to 28° C./5% CO2.
# Whole cell patch clamp experiments were performed using an Axopatch 200B amplifier (Axon Instruments, Burlingame, Calif.) linked to a personal computer equipped with pCLAMP software. […] Currents were typically elicited from a holding potential of −80 mV to +10 mV using Clampex software (Axon Instruments). […] The compounds were then applied during the low frequency pulse trains for two to three minutes to assess tonic block, and subsequently the pulse frequency was increased to 0.2 Hz to assess frequency dependent block. Data were analyzed using Clampfit (Axon Instruments) and SigmaPlot 4.0 (Jandel Scientific).
# [1] = 0.067 Hz, read-out: IC50 for N-type Calcium Channel Block (0.067 Hz)
# [2] = 0.2 Hz, read-out: IC50 for N-type Calcium Channel Block (0.2 Hz)
# T1 sequence (Q02294 whole entry): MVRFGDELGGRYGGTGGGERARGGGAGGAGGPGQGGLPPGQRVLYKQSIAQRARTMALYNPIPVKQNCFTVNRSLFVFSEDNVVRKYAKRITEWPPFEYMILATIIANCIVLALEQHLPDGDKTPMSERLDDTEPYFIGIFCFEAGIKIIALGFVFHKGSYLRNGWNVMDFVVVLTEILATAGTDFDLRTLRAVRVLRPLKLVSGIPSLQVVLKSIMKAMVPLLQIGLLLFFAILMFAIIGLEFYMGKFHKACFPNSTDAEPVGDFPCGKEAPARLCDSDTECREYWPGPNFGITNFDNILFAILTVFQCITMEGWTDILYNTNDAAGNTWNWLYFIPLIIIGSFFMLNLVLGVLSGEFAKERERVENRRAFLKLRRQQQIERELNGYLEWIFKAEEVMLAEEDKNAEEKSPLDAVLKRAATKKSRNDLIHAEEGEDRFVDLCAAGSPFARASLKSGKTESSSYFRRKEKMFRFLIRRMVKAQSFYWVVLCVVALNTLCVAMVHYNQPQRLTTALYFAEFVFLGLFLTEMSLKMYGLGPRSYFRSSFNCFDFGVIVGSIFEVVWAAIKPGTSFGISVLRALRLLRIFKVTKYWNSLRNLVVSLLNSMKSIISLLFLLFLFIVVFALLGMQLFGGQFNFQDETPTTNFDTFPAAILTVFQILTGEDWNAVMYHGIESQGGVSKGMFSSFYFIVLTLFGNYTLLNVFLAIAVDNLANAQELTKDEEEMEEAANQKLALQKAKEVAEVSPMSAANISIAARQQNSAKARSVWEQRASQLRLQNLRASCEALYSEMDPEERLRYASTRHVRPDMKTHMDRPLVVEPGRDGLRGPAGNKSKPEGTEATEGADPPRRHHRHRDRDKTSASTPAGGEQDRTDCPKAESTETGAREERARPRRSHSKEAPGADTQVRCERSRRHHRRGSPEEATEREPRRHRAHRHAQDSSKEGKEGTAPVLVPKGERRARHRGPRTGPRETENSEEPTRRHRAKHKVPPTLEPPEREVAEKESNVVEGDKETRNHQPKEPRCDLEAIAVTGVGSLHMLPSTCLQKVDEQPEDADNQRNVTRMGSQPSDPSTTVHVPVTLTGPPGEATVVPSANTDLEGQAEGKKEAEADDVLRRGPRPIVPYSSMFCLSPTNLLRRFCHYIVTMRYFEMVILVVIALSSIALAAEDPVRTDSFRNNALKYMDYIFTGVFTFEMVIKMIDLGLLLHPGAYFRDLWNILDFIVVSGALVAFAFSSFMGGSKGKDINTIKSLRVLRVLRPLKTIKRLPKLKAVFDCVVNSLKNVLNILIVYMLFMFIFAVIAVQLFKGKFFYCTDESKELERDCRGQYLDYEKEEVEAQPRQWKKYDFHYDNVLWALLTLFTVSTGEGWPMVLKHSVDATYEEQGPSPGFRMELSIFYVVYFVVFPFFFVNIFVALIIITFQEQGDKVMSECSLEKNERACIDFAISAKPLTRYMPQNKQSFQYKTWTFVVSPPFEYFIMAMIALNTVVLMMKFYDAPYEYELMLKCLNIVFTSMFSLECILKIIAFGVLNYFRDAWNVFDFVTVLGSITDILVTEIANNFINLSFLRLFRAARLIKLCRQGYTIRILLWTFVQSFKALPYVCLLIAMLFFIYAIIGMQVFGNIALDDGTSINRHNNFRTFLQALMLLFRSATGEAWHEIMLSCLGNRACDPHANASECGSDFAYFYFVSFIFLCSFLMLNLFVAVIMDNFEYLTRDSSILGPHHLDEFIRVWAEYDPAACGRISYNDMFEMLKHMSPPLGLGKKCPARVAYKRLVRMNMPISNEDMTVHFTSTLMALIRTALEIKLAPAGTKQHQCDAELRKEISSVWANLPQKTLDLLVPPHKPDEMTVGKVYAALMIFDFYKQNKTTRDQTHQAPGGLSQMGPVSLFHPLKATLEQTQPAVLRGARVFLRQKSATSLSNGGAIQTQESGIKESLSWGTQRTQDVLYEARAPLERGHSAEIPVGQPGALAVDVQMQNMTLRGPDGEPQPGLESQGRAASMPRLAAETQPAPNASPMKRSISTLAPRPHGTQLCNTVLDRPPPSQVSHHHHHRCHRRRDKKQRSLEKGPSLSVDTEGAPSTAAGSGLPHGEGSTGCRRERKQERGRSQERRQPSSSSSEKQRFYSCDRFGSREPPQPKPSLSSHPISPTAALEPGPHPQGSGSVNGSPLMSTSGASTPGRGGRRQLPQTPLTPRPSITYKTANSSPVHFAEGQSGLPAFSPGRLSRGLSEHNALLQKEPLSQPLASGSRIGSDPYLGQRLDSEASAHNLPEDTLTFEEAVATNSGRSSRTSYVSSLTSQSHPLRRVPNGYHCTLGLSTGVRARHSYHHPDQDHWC
# T1 sequence (P54290 25-944 partner limits assumed): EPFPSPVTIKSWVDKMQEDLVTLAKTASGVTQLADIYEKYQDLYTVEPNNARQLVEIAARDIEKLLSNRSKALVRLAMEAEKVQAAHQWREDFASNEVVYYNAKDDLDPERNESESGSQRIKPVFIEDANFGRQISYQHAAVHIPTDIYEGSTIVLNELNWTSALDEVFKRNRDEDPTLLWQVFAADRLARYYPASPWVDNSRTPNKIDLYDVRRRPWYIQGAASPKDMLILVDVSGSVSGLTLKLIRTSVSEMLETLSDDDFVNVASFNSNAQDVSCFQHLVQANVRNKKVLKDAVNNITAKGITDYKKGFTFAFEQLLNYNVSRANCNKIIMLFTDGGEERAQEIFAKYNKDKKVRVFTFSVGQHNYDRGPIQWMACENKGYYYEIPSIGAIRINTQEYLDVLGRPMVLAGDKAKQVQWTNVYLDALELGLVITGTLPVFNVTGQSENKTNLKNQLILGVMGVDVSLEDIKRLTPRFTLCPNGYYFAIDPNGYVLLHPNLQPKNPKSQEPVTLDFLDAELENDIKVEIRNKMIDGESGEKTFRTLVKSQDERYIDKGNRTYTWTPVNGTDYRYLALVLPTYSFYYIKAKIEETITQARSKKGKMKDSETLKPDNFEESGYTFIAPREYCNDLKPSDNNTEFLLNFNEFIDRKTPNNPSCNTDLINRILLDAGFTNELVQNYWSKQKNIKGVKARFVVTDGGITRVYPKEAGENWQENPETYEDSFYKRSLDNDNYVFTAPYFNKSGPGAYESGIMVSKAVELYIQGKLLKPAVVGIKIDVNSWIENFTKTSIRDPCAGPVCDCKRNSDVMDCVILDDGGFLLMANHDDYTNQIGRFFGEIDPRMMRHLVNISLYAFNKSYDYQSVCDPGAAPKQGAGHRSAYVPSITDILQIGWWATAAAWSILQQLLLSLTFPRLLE
# T1 sequence (P54290 945-1091 partner limits assumed): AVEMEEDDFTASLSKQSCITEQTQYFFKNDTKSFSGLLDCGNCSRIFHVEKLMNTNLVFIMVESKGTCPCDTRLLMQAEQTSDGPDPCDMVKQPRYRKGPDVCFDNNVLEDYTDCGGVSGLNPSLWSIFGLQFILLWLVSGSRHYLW
# T1 sequence (P54283 whole entry partner): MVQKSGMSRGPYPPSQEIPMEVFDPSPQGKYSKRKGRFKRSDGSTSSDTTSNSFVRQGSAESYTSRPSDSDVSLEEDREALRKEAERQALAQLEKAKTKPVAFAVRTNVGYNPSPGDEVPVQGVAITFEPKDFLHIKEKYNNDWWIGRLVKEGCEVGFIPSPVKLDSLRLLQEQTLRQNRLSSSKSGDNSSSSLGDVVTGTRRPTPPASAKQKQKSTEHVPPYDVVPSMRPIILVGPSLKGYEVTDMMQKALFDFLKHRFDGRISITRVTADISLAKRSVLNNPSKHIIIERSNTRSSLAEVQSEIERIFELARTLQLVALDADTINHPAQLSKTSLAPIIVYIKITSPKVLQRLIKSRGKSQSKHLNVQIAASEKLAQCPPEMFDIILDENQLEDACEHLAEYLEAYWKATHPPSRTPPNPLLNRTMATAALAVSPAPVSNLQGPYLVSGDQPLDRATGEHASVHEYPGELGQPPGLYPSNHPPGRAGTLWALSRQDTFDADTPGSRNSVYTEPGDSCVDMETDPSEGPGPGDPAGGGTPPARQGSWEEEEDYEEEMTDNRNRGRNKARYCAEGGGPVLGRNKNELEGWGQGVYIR
IC50 [1] [µM],IC50 [2] [µM],SMILES
1.58,0.975,Cc1cc(OC[C@@H](O)CN2CCN(C(=O)CCCCC(c3ccc(F)cc3)c3ccc(F)cc3)CC2)c(C)c(C)c1N [Compound P68]
0.28,0.18,"COc1cc(C(=O)N2CCN(C(=O)CCCC(O)C(c3ccc(F)cc3)c3ccc(F)cc3)CC2)cc(OC)c1OC (stereo not shown) [Compound P44, 6,6-bis-(4-fluoro-phenyl)-5-hydroxy-1-[4-(3,4,5-trimethoxy-benzoyl)-piperazin-1-yl]-hexan-1-one]"
0.4,0.37,COc1c(C(C)(C)C)cc(CN2CCN(C(=O)CCCCC(c3ccc(F)cc3)c3ccc(F)cc3)CC2=O)cc1C(C)(C)C [Compound P52]
0.12,0.076,COc1c(C(C)(C)C)cc(C(=O)N2CCN(CCCCCC(c3ccc(F)cc3)c3ccc(F)cc3)C(=O)C2)cc1C(C)(C)C [Compound P54]
0.502,0.41,O=C(CCCCC(c1ccc(F)cc1)c1ccc(F)cc1)N1CCN(c2nc3ccccc3s2)CC1 [Compound P69]
0.579,0.423,O=C(CCCCC(c1ccc(F)cc1)c1ccc(F)cc1)N1CCN(CCOc2ccc(F)cc2)CC1 [Compound P79]
0.66,0.43,Fc1ccc(C(CCCCCN2CCN(CCSc3nc4ccccc4s3)CC2)c2ccc(F)cc2)cc1 [Compound P74]
0.19,0.15,COc1c(C(C)(C)C)cc(C(=O)N2CCN(C(=O)CCCCC(c3ccc(F)cc3)c3ccc(F)cc3)CC2=O)cc1C(C)(C)C [Compound P55]
0.839,0.603,COc1cc(C(=O)N2CCN(C(=O)CCCCC(c3ccc(F)cc3)c3ccc(F)cc3)CC2)cc(OC)c1O [Compound P75]
1.04,1.06,Fc1ccc(C(CCCCCN2CCN(Cc3cc(C(F)(F)F)cc(C(F)(F)F)c3)CC2)c2ccc(F)cc2)cc1 [Compound P70]
0.808,0.63,CC(C)(C)c1ccc(C(=O)N2CCN(C(=O)CCCCC(c3ccc(F)cc3)c3ccc(F)cc3)CC2)cc1 [Compound P72]
0.8,0.55,COc1cc(OCCN2CCN(CCCCCC(c3ccc(F)cc3)c3ccc(F)cc3)CC2)cc(OC)c1OC [Compound P66]
0.96,0.66,O=C(CCCCC(c1ccc(F)cc1)c1ccc(F)cc1)N1CCN(CCNc2ccccc2)CC1 [Compound P80]
0.541,0.39,COc1ccc(C(=O)N2CCN(C(=O)CCCCC(c3ccc(F)cc3)c3ccc(F)cc3)CC2)cc1OC [Compound P64]
0.28,0.22,Fc1ccc(C(CCCCCN2CCN(Cc3ccc(OC(F)(F)F)cc3)CC2)c2ccc(F)cc2)cc1 [Compound P77]
0.102,0.056,"COc1cc(CN2CCN(C(=O)CCCCC(c3ccc(F)cc3)c3ccc(F)cc3)CC2=O)cc(OC)c1OC [Compound P48, 4-[6,6-bis-(4-fluoro-phenyl)-hexanoyl]-1-(3,4,5,-trimethoxy-benzyl)-piperazin-2-one]"
0.43,0.34,"COc1cc(C(=O)N2CCN(C(=O)CCCCC(O)(c3ccc(F)cc3)c3ccc(F)cc3)CC2)cc(OC)c1OC [Compound P46, 6,6-bis-(4-fluoro-phenyl)-6-hydroxy-1-[4-(3,4,5,-trimethoxy-benzoyl)-piperazin-1-yl]-hexan-1-one]"
0.81,0.43,"COc1ccc(OCCN2CCN(C(=O)CCCCC(c3ccc(F)cc3)c3ccc(F)cc3)CC2)cc1OC [Compound P59, 1-{4-[2-(3,4-dimethoxy-phenoxy)ethyl]-piperazin-1-yl}-6,6-bis-(4-fluoro-phenyl)-hexan-1-one]"
0.419,0.292,COc1cc(CN2CCN(C(=O)CCCCCCCC(c3ccccc3)c3ccccc3)CC2)cc(OC)c1OC [Compound P102]
0.97,0.79,"COc1ccc(OCCN2CCN(CCCCCC(c3ccc(F)cc3)c3ccc(F)cc3)CC2)cc1OC [Compound P60, 1-[6,6-bis-(4-fluoro-phenyl)-hexyl]-4-[2-(3,4,-dimethoxy-phenoxy)-ethyl]-piperazine]"
